# Results as given in patent publication US9187524B2, “Broad spectrum antibiotic arylomycin analogs” (The Scripps Research Institute, priority 2010, dated 2015).
# Legend:
# [1] = tested on: S. epidermidis PAS9002 (SPase S31P); test: microbe, parasite or virus in culture; type: cell-based
# S. epidermidis = test: Selection of arylomycin resistant S. epidermidis; type: cell-based; settings: growth in the presence of 2 μg/ml (8×MIC)
structure (smiles),measurement,setting,value
CCCCCCCCCCCCCCCC(=O)N(C)[C@H](CO)C(=O)N[C@H](C)C(=O)NCC(=O)N(C)[C@@H]1C(=O)N[C@@H](C)C(=O)N[C@H](C(=O)O)Cc2ccc(O)c(c2)-c2cc1ccc2O [Arylomycin C16],MIC,"[1]; Staphylococcus epidermidis, read-out: MIC, S. epidermidis PAS9002",> 128 mg/L
same,"fold elevated MIC compared to the wild type strain, Ser to Pro at position 31",[1]; remainder of selected S. epidermidis mutants,greater than 256 fold
same,frequency of resistant mutants,S. epidermidis,4 per 109 viable cells
